In this experiment the target is Squalene monooxygenase (Sus scrofa). Put plainly: In vitro inhibition of pig liver microsomal squalene epoxidase (SE) by measuring the extend of cholesterol radiolabeling after incubation with [14C]mevalonate.

This passage reports IC50 results from BindingDB's records for doi:10.1016/S0960-894X(97)00175-3 (1997).

The structures appear in SMILES notation.

Regarding `CCN(CC#Cc1ccccc1)Cc1cccc(OCc2cc(-c3ccsc3)cs2)c1` [[3-([3,3']Bithiophenyl-5-ylmethoxy)-benzyl]-ethyl-(3-phenyl-prop-2-ynyl)-amine], it took 100 nM to reach half-maximal inhibition (IC50).
`CCN(CC#Cc1ccccc1N=[N+]=[N-])Cc1cccc(OCc2cc(-c3ccsc3)cs2)c1` [[3-(2-Azido-phenyl)-prop-2-ynyl]-[3-([3,3']bithiophenyl-5-ylmethoxy)-benzyl]-ethyl-amine] showed an IC50 above 100000 nM.
As to `CCN(C/C=C/C#CC(C)(C)C)Cc1cccc(OC[Si](C)(C)c2ccc(N=[N+]=[N-])cc2)c1` [(3-{[(4-Azido-phenyl)-dimethyl-silanyl]-methoxy}-benzyl)-(6,6-dimethyl-hept-2-en-4-ynyl)-ethyl-amine], the IC50 stood at 520 nM.
`CCN(CC#Cc1ccc(N=[N+]=[N-])cc1)Cc1cccc(OCc2cc(-c3ccsc3)cs2)c1` [[3-(4-Azido-phenyl)-prop-2-ynyl]-[3-([3,3']bithiophenyl-5-ylmethoxy)-benzyl]-ethyl-amine]: the concentration for half-maximal inhibition (IC50) amounted to 960 nM.
The result for `CCN(CC#Cc1cccc(N=[N+]=[N-])c1)Cc1cccc(OCc2cc(-c3ccsc3)cs2)c1` [[3-(3-Azido-phenyl)-prop-2-ynyl]-[3-([3,3']bithiophenyl-5-ylmethoxy)-benzyl]-ethyl-amine] reads 270 nM.
